According to PubChem BioAssay (NCI):
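Protocol summary: plate cells (96-well), add compound at 5 concentrations, incubate 48 h, interpolate endpoints linearly. The concentration for 50% growth inhibition is given as GI50. TGI: total growth inhibition.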

How the values were obtained:
Test in all cases: inhibition of tumour cell growth, NCI panel, 48 h
[1] = system: SK-MEL-2 melanoma
[2] = system: 786-0 renal
[3] = system: HL-60(TB) leukemia
[4] = system: BT-549 breast
[5] = system: SN12C renal
[6] = system: ACHN renal
[7] = system: HCC-2998 colon
[8] = system: MALME-3M melanoma
[9] = system: OVCAR-5 ovarian
[10] = system: CAKI-1 renal
[11] = system: HOP-92 NSCLC
[12] = system: M14 melanoma
[13] = system: SK-MEL-28 melanoma
[14] = system: U251 CNS
[15] = system: LOX IMVI melanoma
[16] = system: SF-268 CNS
[17] = system: HT29 colon
[18] = system: KM12 colon
[19] = system: UO-31 renal
[20] = system: UACC-62 melanoma
[21] = system: OVCAR-4 ovarian
[22] = system: IGROV1 ovarian
[23] = system: K-562 leukemia
[24] = system: TK-10 renal
[25] = system: HS 578T breast
[26] = system: OVCAR-8 ovarian
[27] = system: EKVX NSCLC
[28] = system: SW-620 colon
[29] = system: A549 NSCLC
[30] = system: RXF 393 renal
[31] = system: COLO 205 colon
[32] = system: PC-3 prostate
[33] = system: MDA-MB-435
[34] = system: SF-539 CNS
[35] = system: NCI/ADR-RES ovarian
[36] = system: SK-MEL-5 melanoma
[37] = system: NCI-H522 lung
[38] = system: SK-OV-3 ovarian
[39] = system: HCT-15 colon
[40] = system: T-47D breast
[41] = system: HCT-116 colon
[42] = system: SF-295 CNS
[43] = system: SNB-19 CNS
[44] = system: SR leukemia
[45] = system: RPMI-8226 leukemia
[46] = system: MDA-MB-231 breast
[47] = system: NCI-H460 lung
[48] = system: A498 renal
[49] = system: DU-145 prostate
[50] = system: NCI-H23 lung
[51] = system: NCI-H226 lung
[52] = system: MCF7 breast
[53] = system: HOP-62 NSCLC
[54] = system: UACC-257 melanoma
[55] = system: SNB-75 CNS
[56] = system: OVCAR-3 ovarian
[57] = system: CCRF-CEM leukemia
[58] = system: MOLT-4 leukemia

## CCCCCCCCCCCCCCCCNC(=O)OC(C)C
[1]
  GI50: 2.43 µM
  TGI: 6.15 µM
[2]
  GI50: 9.38 µM
  TGI: 29.4 µM
[3]
  GI50: 2.01 µM
  TGI: 5.56 µM
[4]
  GI50: 21.9 µM
  TGI: 55.9 µM
[5]
  GI50: 4.53 µM
  TGI: 17 µM
[6]
  GI50: 2.16 µM
  TGI: 5.24 µM
[7]
  GI50: 2.56 µM
  TGI: 6.22 µM
[8]
  GI50: 2.89 µM
  TGI: 9.24 µM
[9]
  GI50: 2.81 µM
  TGI: 8.39 µM
[10]
  GI50: 2.03 µM
  TGI: 4.75 µM
[11]
  GI50: 3.02 µM
  TGI: 13.7 µM
[12]
  GI50: 3.5 µM
  TGI: 14.4 µM
[13]
  GI50: 13.5 µM
  TGI: 27.1 µM
[14]
  GI50: 1.96 µM
  TGI: 3.67 µM
[15]
  GI50: 1.61 µM
  TGI: 2.97 µM
[16]
  GI50: 2.73 µM
  TGI: 8 µM
[17]
  GI50: 1.65 µM
  TGI: 3.12 µM
[18]
  GI50: 1.83 µM
  TGI: 3.5 µM
[19]
  GI50: 1.54 µM
  TGI: 3.38 µM
[20]
  GI50: 6.04 µM
  TGI: 19 µM
[21]
  GI50: 2.01 µM
  TGI: 4.37 µM
[22]
  GI50: 2.27 µM
  TGI: 5 µM
[23]
  GI50: 2.14 µM
  TGI: 5.86 µM
[24]
  GI50: 2.09 µM
  TGI: 4.48 µM
[25]
  GI50: 2.19 µM
  TGI: 16.5 µM
[26]
  GI50: 3.82 µM
  TGI: 18 µM
[27]
  GI50: 2.35 µM
  TGI: 6.44 µM
[28]
  GI50: 1.46 µM
  TGI: 2.87 µM
[29]
  GI50: 1.95 µM
  TGI: 3.82 µM
[30]
  GI50: 8.07 µM
  TGI: 26.6 µM
[31]
  GI50: 1.95 µM
  TGI: 3.61 µM
[32]
  GI50: 2.45 µM
  TGI: 7.53 µM
[33]
  GI50: 2.55 µM
  TGI: 6.93 µM
[34]
  GI50: 5.15 µM
  TGI: 12.7 µM
[35]
  GI50: 3.34 µM
  TGI: 13.6 µM
[36]
  GI50: 12.3 µM
  TGI: 27.8 µM
[37]
  GI50: 2.01 µM
  TGI: 4.62 µM
[38]
  GI50: 5.7 µM
  TGI: 14.3 µM
[39]
  GI50: 2.35 µM
  TGI: 6.79 µM
[40]
  GI50: 3.79 µM
  TGI: 12.6 µM
[41]
  GI50: 1.96 µM
  TGI: 4.17 µM
[42]
  GI50: 2.11 µM
  TGI: 5.81 µM
[43]
  GI50: 5.48 µM
  TGI: 16.3 µM
[44]
  GI50: 1.56 µM
  TGI: 5.01 µM
[45]
  GI50: 5.22 µM
  TGI: 40.8 µM
[46]
  GI50: 2.37 µM
  TGI: 5.41 µM
[47]
  GI50: 1.11 µM
  TGI: 2.46 µM
[48]
  GI50: 0.37 µM
  TGI: 5.95 µM
[49]
  GI50: 1.81 µM
  TGI: 3.41 µM
[50]
  GI50: 3.04 µM
  TGI: 10.3 µM
[51]
  GI50: 3.56 µM
  TGI: 14.1 µM
[52]
  GI50: 1.88 µM
  TGI: 3.53 µM
[53]
  GI50: 5.11 µM
  TGI: 11.2 µM
[54]
  GI50: 13.2 µM
  TGI: 28.8 µM
[55]
  GI50: 5.74 µM
  TGI: 18.1 µM
[56]
  GI50: 1.99 µM
  TGI: 3.89 µM
[57]
  GI50: 2.31 µM
  TGI: 6.2 µM

## Cc1ccc2c(NCCCN(C)C)c3c(C)nn(C)c3nc2c1
[1]
  GI50: 3.64 µM
  TGI: 11.1 µM
[2]
  GI50: 4.99 µM
  TGI: 26.5 µM
[3]
  GI50: 5.08 µM
  TGI: 22.9 µM
[4]
  GI50: 13.7 µM
  TGI: 31 µM
[5]
  GI50: 3.52 µM
  TGI: 29.9 µM
[6]
  GI50: 2.25 µM
  TGI: 16.9 µM
[7]
  GI50: 5.83 µM
  TGI: 22.4 µM
[8]
  GI50: 4.97 µM
  TGI: 22 µM
[9]
  GI50: 3.69 µM
  TGI: 22.4 µM
[10]
  GI50: 3.04 µM
  TGI: 38.1 µM
[11]
  GI50: 1.6 µM
  TGI: 5.99 µM
[12]
  GI50: 4.34 µM
  TGI: 17.6 µM
[13]
  GI50: 4.44 µM
  TGI: 17.3 µM
[14]
  GI50: 4.77 µM
  TGI: 29.4 µM
[15]
  GI50: 2.22 µM
  TGI: 5.64 µM
[16]
  GI50: 4.18 µM
  TGI: 23.9 µM
[17]
  GI50: 2.62 µM
  TGI: 8.88 µM
[18]
  GI50: 4.55 µM
  TGI: 31.8 µM
[19]
  GI50: 2.68 µM
  TGI: 14 µM
[20]
  GI50: 3.9 µM
  TGI: 16.4 µM
[21]
  GI50: 3.06 µM
  TGI: 16.1 µM
[22]
  GI50: 4.17 µM
  TGI: 29.6 µM
[23]
  GI50: 3.14 µM
  TGI: > 100 µM
[24]
  GI50: 2.89 µM
  TGI: 14 µM
[25]
  GI50: 4.24 µM
  TGI: 33.5 µM
[26]
  GI50: 3.73 µM
  TGI: 21.7 µM
[28]
  GI50: 2.96 µM
  TGI: 35.5 µM
[29]
  GI50: 3.45 µM
  TGI: 25.1 µM
[30]
  GI50: 2.71 µM
  TGI: 12.1 µM
[58]
  GI50: 5.11 µM
  TGI: 33.1 µM
[31]
  GI50: 3.03 µM
  TGI: 11.4 µM
[32]
  GI50: 3.59 µM
  TGI: 16.3 µM
[33]
  GI50: 3.28 µM
  TGI: 14 µM
[34]
  GI50: 4.7 µM
  TGI: 19.6 µM
[35]
  GI50: 3.34 µM
  TGI: 66.4 µM
[36]
  GI50: 3.66 µM
  TGI: 14.3 µM
[37]
  GI50: 2.76 µM
  TGI: 12.7 µM
[38]
  GI50: 7.26 µM
  TGI: 68.7 µM
[39]
  GI50: 2.59 µM
  TGI: 18.3 µM
[40]
  GI50: 9.5 µM
  TGI: 98.8 µM
[41]
  GI50: 3.04 µM
  TGI: 25.1 µM
[42]
  GI50: 3.83 µM
  TGI: 28.4 µM
[43]
  GI50: 3.96 µM
  TGI: 39.1 µM
[44]
  GI50: 3.36 µM
  TGI: > 100 µM
[45]
  GI50: 3.3 µM
  TGI: 14.4 µM
[46]
  GI50: 3.86 µM
  TGI: 19.4 µM
[47]
  GI50: 2.96 µM
  TGI: 10.2 µM
[48]
  GI50: 1.8 µM
  TGI: 7.86 µM
[49]
  GI50: 3.88 µM
  TGI: 37.7 µM
[50]
  GI50: 5.29 µM
  TGI: 25.3 µM
[51]
  GI50: 3.34 µM
  TGI: 27 µM
[52]
  GI50: 2.53 µM
  TGI: 7.04 µM
[53]
  GI50: 6.46 µM
  TGI: 60.2 µM
[54]
  GI50: 3.9 µM
  TGI: 14.4 µM
[55]
  GI50: 1.89 µM
  TGI: 10.9 µM
[56]
  GI50: 4.13 µM
  TGI: 24.8 µM
[57]
  GI50: 5.09 µM
  TGI: 88.8 µM
